CC(C)(C)c1cc(CCC(=O)NCCCCCCNC(=O)CCc2cc(C(C)(C)C)c(O)c(C(C)(C)C)c2)cc(C(C)(C)C)c1O
solubility (mole fraction) (in acetone, 283.15 K): 0.00214
solubility (mole fraction) (in acetone, 288.15 K): 0.00257
solubility (mole fraction) (in acetone, 293.15 K): 0.00297
solubility (mole fraction) (in acetone, 298.15 K): 0.00328
solubility (mole fraction) (in acetone, 303.15 K): 0.00419
solubility (mole fraction) (in acetone, 308.15 K): 0.00585
solubility (mole fraction) (in acetone, 313.15 K): 0.00747
solubility (mole fraction) (in acetone, 318.15 K): 0.01
solubility (mole fraction) (in acetone, 323.15 K): 0.0152
solubility (mole fraction) (in ethanol, 283.15 K): 0.00775
solubility (mole fraction) (in ethanol, 288.15 K): 0.00841
solubility (mole fraction) (in ethanol, 293.15 K): 0.00982
solubility (mole fraction) (in ethanol, 298.15 K): 0.011
solubility (mole fraction) (in ethanol, 303.15 K): 0.0126
solubility (mole fraction) (in ethanol, 308.15 K): 0.0148
solubility (mole fraction) (in ethanol, 313.15 K): 0.0178
solubility (mole fraction) (in ethanol, 318.15 K): 0.0218
solubility (mole fraction) (in ethanol, 323.15 K): 0.0264
solubility (mole fraction) (in ethyl acetate, 283.15 K): 0.000614
solubility (mole fraction) (in ethyl acetate, 288.15 K): 0.000852
solubility (mole fraction) (in ethyl acetate, 293.15 K): 0.00109
solubility (mole fraction) (in ethyl acetate, 298.15 K): 0.00123
solubility (mole fraction) (in ethyl acetate, 303.15 K): 0.00155
solubility (mole fraction) (in ethyl acetate, 308.15 K): 0.00192
solubility (mole fraction) (in ethyl acetate, 313.15 K): 0.00258
solubility (mole fraction) (in ethyl acetate, 318.15 K): 0.00376
solubility (mole fraction) (in ethyl acetate, 323.15 K): 0.00527
solubility (mole fraction) (in ethyl formate, 283.15 K): 0.00151
solubility (mole fraction) (in ethyl formate, 288.15 K): 0.00205
solubility (mole fraction) (in ethyl formate, 293.15 K): 0.00207
solubility (mole fraction) (in ethyl formate, 298.15 K): 0.00254
solubility (mole fraction) (in ethyl formate, 303.15 K): 0.00309
solubility (mole fraction) (in ethyl formate, 308.15 K): 0.00406
solubility (mole fraction) (in ethyl formate, 313.15 K): 0.00501
solubility (mole fraction) (in ethyl formate, 318.15 K): 0.00622
solubility (mole fraction) (in ethyl formate, 323.15 K): 0.00879
solubility (mole fraction) (in isopropanol, 283.15 K): 0.00326
solubility (mole fraction) (in isopropanol, 288.15 K): 0.00345
solubility (mole fraction) (in isopropanol, 293.15 K): 0.004
solubility (mole fraction) (in isopropanol, 298.15 K): 0.00459
solubility (mole fraction) (in isopropanol, 303.15 K): 0.00552
solubility (mole fraction) (in isopropanol, 308.15 K): 0.00688
solubility (mole fraction) (in isopropanol, 313.15 K): 0.00872
solubility (mole fraction) (in isopropanol, 318.15 K): 0.0107
solubility (mole fraction) (in isopropanol, 323.15 K): 0.0129
solubility (mole fraction) (in methanol, 283.15 K): 0.00197
solubility (mole fraction) (in methanol, 288.15 K): 0.0023
solubility (mole fraction) (in methanol, 293.15 K): 0.00263
solubility (mole fraction) (in methanol, 298.15 K): 0.0032
solubility (mole fraction) (in methanol, 303.15 K): 0.00388
solubility (mole fraction) (in methanol, 308.15 K): 0.00506
solubility (mole fraction) (in methanol, 313.15 K): 0.00666
solubility (mole fraction) (in methanol, 318.15 K): 0.00874
solubility (mole fraction) (in methanol, 323.15 K): 0.012
solubility (mole fraction) (in methyl acetate, 283.15 K): 0.000498
solubility (mole fraction) (in methyl acetate, 288.15 K): 0.000804
solubility (mole fraction) (in methyl acetate, 293.15 K): 0.000846
solubility (mole fraction) (in methyl acetate, 298.15 K): 0.00107
solubility (mole fraction) (in methyl acetate, 303.15 K): 0.00137
solubility (mole fraction) (in methyl acetate, 308.15 K): 0.00185
solubility (mole fraction) (in methyl acetate, 313.15 K): 0.00239
solubility (mole fraction) (in methyl acetate, 318.15 K): 0.00359
solubility (mole fraction) (in methyl acetate, 323.15 K): 0.00538
solubility (mole fraction) (in n-propanol, 283.15 K): 0.00711
solubility (mole fraction) (in n-propanol, 288.15 K): 0.00807
solubility (mole fraction) (in n-propanol, 293.15 K): 0.00974
solubility (mole fraction) (in n-propanol, 298.15 K): 0.0116
solubility (mole fraction) (in n-propanol, 303.15 K): 0.0128
solubility (mole fraction) (in n-propanol, 308.15 K): 0.0153
solubility (mole fraction) (in n-propanol, 313.15 K): 0.0183
solubility (mole fraction) (in n-propanol, 318.15 K): 0.0223
solubility (mole fraction) (in n-propanol, 323.15 K): 0.0254
